Our source for the IC50 values is patent publication US20240383904A1, “HETEROCYCLIC COMPOUNDS” (Hoffmann-La Roche Inc., priority 2021, published 2024).

What is called IC50 is the point on the concentration scale where inhibition reaches its midpoint. A high value points to lower potency.

Molecules are shown by their SMILES.

The assay addresses T1, MAGL (Homo sapiens, UniProt Q99685).
T1 sequence (Q99685 1-303): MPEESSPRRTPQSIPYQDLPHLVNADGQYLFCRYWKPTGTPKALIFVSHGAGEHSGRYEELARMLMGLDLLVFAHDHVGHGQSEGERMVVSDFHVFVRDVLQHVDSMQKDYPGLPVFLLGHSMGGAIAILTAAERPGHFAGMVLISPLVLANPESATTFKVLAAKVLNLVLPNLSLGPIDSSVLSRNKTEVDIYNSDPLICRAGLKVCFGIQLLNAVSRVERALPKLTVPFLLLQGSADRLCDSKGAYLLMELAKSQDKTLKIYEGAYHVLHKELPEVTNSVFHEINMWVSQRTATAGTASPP
Description: 2-AG assay: MAGL inhibitory activity by hydrolysis of 2-arachidonoylglycerol to arachidonic acid, followed by mass spectrometry. The following applies: 15 min preincubation, 30 min reaction at RT, 8 μM 2-arachidonoylglycerol. The assay is classed as biochemical.
The compound `O=C1CCC2(CN(C(=O)N3CC4(CCC(Nc5cnc(C(F)(F)F)cn5)CC4)C3)C2)N1` [Example 129, 2-[7-[[5-(trifluoromethyl)pyrazin-2-yl]amino]-2-azaspiro[3.5]nonane-2-carbonyl]-2,5-diazaspiro[3.4]octan-6-one] returned a concentration for half-maximal inhibition (IC50) of 66.7 nM.
For `O=C1NC2(CCO1)CN(C(=O)N1CC3(CCC(OCC4(C(F)(F)F)CC4)CC3)C1)C2` [Example 130, 2-[7-[[1-(trifluoromethyl)cyclopro-pyl]methoxy]-2-azaspiro[3.5]nonane-2-carbonyl]-7-oxa-2,5-diazaspiro[3.5]nonan-6-one] the value was 186 nM; for `O=C1CCC2(CN(C(=O)N3CC4(CC(n5cnc(C6CC6)n5)C4)C3)C2)N1` [Example 131, 2-[6-(3-cyclopropyl-1,2,4-triazol-1-yl)-2-azaspiro[3.3]heptane-2-carbonyl]-2,5-diazaspiro[3.4]octan-6-one], 209 nM.
To `O=C1CCC2(CN(C(=O)N3CC4(CCN(Cc5ccc(C(F)(F)F)cc5F)CC4)C3)C2)N1` [Example 132] belongs 0.79 nM.
For `O=C1COCC2(CN(C(=O)N3CC4(CCC(Cc5ccc(OC(F)F)nc5)CC4)C3)C2)N1` [Example 133, 2-[7-[[6-(difluoromethoxy)-3-pyridyl]methyl]-2-azaspiro[3.5]nonane-2-carbonyl]-8-oxa-2,5-diazaspiro[3.5]nonan-6-one] the value was 13.1 nM; for `O=C1COCC2(CN(C(=O)N3CC4(CCN(Cc5cccc(S(=O)(=O)C(F)(F)F)c5)CC4)C3)C2)N1` [Example 134, 2-[7-(3-triflylbenzyl)-2,7-diazaspiro[3.5]nonane-2-carbonyl]-8-oxa-2,5-diazaspiro[3.5]nonan-6-one], 19.1 nM.
`O=C1NC2(CO1)CN(C(=O)N1CC3(CCN(Cc4ccc(C(F)(F)F)cc4F)CC3)C1)C2` [Example 135] showed an IC50 of 1.01 nM.
For `O=C1CCC2(CN(C(=O)N3CC4(CCN(Cc5cccc(S(=O)(=O)C(F)(F)F)c5)CC4)C3)C2)N1` [Example 136, 2-[7-(3-triflylbenzyl)-2,7-diazaspiro[3.5]nonane-2-carbonyl]-2,5-diazaspiro[3.4]octan-6-one] the value was 4.66 nM; for `O=C1COCC2(CN(C(=O)N3CC4(CC(Cc5ccc(F)cc5F)C4)C3)C2)N1` [Example 137, 2-[6-(2,4-difluorobenzyl)-2-azaspiro[3.3]heptane-2-carbonyl]-8-oxa-2,5-diazaspiro[3.5]nonan-6-one], 0.97 nM; for `O=C1COCC2(CN(C(=O)N3CC4(CC(Cc5cnc(C(F)(F)F)cn5)C4)C3)C2)N1` [Example 138, 2-[6-[[5-(trifluoromethyl)pyrazin-2-yl]methyl]-2-azaspiro[3.3]heptane-2-carbonyl]-8-oxa-2,5-diazaspiro[3.5]nonan-6-one], 51 nM.
For `O=C1NC2(CO1)CN(C(=O)N1CC3(CCN(Cc4cccc(S(=O)(=O)C(F)(F)F)c4)CC3)C1)C2` [Example 139, 2-[7-(3-triflylbenzyl)-2,7-diazaspiro[3.5]nonane-2-carbonyl]-7-oxa-2,5-diazaspiro[3.4]octan-6-one] the value was 0.76 nM; for `O=C1COCC2(CN(C(=O)N3CC4(CC(OCC5(C(F)(F)F)CC5)C4)C3)C2)N1` [Example 140, 2-[6-[[1-(trifluoromethyl)cyclopro-pyl]methoxy]-2-azaspiro[3.3]heptane-2-carbonyl]-8-oxa-2,5-diazaspiro[3.5]nonan-6-one], 78.9 nM; for `O=C1COCC2(CN(C(=O)N3CC4(CCN(S(=O)(=O)c5ccc(C(F)(F)F)cc5F)CC4)C3)C2)N1` [Example 141, 2-[7-[2-fluoro-4-(trifluoromethyl)phenyl]sulfonyl-2,7-diazaspiro[3.5]nonane-2-carbonyl]-8-oxa-2,5-diazaspiro[3.5]nonan-6-one], 217 nM.
As to `O=C1COCC2(CN(C(=O)N3CC4(CC(Cc5cc(F)cc(C(F)(F)F)c5)C4)C3)C2)N1` [Example 142], 0.45 nM corresponded to half-maximal inhibition (IC50).
For `O=C1COCC2(CN(C(=O)N3CC4(CC(Cc5ccc(F)cc5C(F)(F)F)C4)C3)C2)N1` [Example 143] the value was 0.07 nM; for `O=C1NC2(CCO1)CN(C(=O)N1CC3(CCN(S(=O)(=O)c4ccc(C(F)(F)F)cc4F)CC3)C1)C2` [Example 144, 2-[7-[2-fluoro-4-(trifluoromethyl)phenyl]sulfonyl-2,7-diazaspiro[3.5]nonane-2-carbonyl]-7-oxa-2,5-diazaspiro[3.5]nonan-6-one], 2120 nM; for `O=C1COCC2(CN(C(=O)N3CC4(CC(Cc5ccc(C(F)(F)F)cc5F)C4)C3)C2)N1` [Example 145], 0.06 nM.
Regarding `O=C1CCC2(CN(C(=O)N3CC4(CCN(Cc5ccc(C(F)(F)F)cn5)CC4)C3)C2)N1` [Example 146, 2-[7-[[5-(trifluoromethyl)-2-pyridyl]methyl]-2,7-diazaspiro[3.5]nonane-2-carbonyl]-2,5-diazaspiro[3.4]octan-6-one], the IC50 was 10.9 nM.
Regarding `CS(=O)(=O)c1cc(F)ccc1CC1CC2(C1)CN(C(=O)N1CC3(COCC(=O)N3)C1)C2` [Example 147, 2-[6-(4-fluoro-2-mesyl-benzyl)-2-azaspiro[3.3]heptane-2-carbonyl]-8-oxa-2,5-diazaspiro[3.5]nonan-6-one], inhibition was half-maximal at 23.2 nM (IC50).
In turn, `O=C1CCC2(CN(C(=O)N3CC4(CCN(Cc5ccc(C(F)(F)F)nc5)CC4)C3)C2)N1` [Example 148, 2-[7-[[6-(trifluoromethyl)-3-pyridyl]methyl]-2,7-diazaspiro[3.5]nonane-2-carbonyl]-2,5-diazaspiro[3.4]octan-6-one] yielded an IC50 of 123 nM.
Regarding `O=C1NC2(CO1)CN(C(=O)N1CC3(CCN(Cc4ccc(C(F)(F)F)cn4)CC3)C1)C2` [Example 149, 2-[7-[[5-(trifluoromethyl)-2-pyridyl]methyl]-2,7-diazaspiro[3.5]nonane-2-carbonyl]-7-oxa-2,5-diazaspiro[3.4]octan-6-one], half-maximal inhibition (IC50) was put at 1.68 nM.
For `O=C1CCC2(CN(C(=O)N3CC4(CCN(Cc5ccc(C(F)(F)F)cn5)C4)C3)C2)N1` [Example 150, 2-[7-[[5-(trifluoromethyl)-2-pyridyl]methyl]-2,7-diazaspiro[3.4]octane-2-carbonyl]-2,5-diazaspiro[3.4]octan-6-one] the value was 140 nM.
For `O=C1NC2(CO1)CN(C(=O)N1CC3(CCN(Cc4ccc(C(F)(F)F)nc4)CC3)C1)C2` [Example 151, 2-[7-[[6-(trifluoromethyl)-3-pyridyl]methyl]-2,7-diazaspiro[3.5]nonane-2-carbonyl]-7-oxa-2,5-diazaspiro[3.4]octan-6-one] the value was 196 nM; for `O=C1CCC2(CN(C(=O)N3CC4(CCN(Cc5ccc(C(F)(F)F)nc5)C4)C3)C2)N1` [Example 152, 2-[7-[[6-(trifluoromethyl)-3-pyridyl]methyl]-2,7-diazaspiro[3.4]octane-2-carbonyl]-2,5-diazaspiro[3.4]octan-6-one], 3.07 nM; for `O=C1NC2(CO1)CN(C(=O)N1CC3(CN(Cc4cc(F)cc(F)c4)C3)C1)C2` [Example 153, 2-[6-(3,5-difluorobenzyl)-2,6-diazaspiro[3.3]heptane-2-carbonyl]-7-oxa-2,5-diazaspiro[3.4]octan-6-one], 4.75 nM.
For `O=C1NC2(CO1)CN(C(=O)N1CC3(CCN(Cc4ccc(C(F)(F)F)cn4)C3)C1)C2` [Example 154, 2-[7-[[5-(trifluoromethyl)-2-pyridyl]methyl]-2,7-diazaspiro[3.4]octane-2-carbonyl]-7-oxa-2,5-diazaspiro[3.4]octan-6-one] the value was 4.11 nM; for `O=C1CCC2(CN(C(=O)N3CC4(CCN(Cc5cnc(C(F)(F)F)cn5)C4)C3)C2)N1` [Example 155, 2-[7-[[5-(trifluoromethyl)pyrazin-2-yl]methyl]-2,7-diazaspiro[3.4]octane-2-carbonyl]-2,5-diazaspiro[3.4]octan-6-one], 237 nM.
Take `O=C1NC2(CO1)CN(C(=O)N1CC3(CCN(Cc4ccc(C(F)(F)F)nc4)C3)C1)C2` [Example 156, 2-[7-[[6-(trifluoromethyl)-3-pyridyl]methyl]-2,7-diazaspiro[3.4]octane-2-carbonyl]-7-oxa-2,5-diazaspiro[3.4]octan-6-one]: inhibition was half-maximal at 5.07 nM (IC50).
For `O=C1NC2(CO1)CN(C(=O)N1CC3(CCN(Cc4cnc(C(F)(F)F)cn4)C3)C1)C2` [Example 157, 2-[7-[[5-(trifluoromethyl)pyrazin-2-yl]methyl]-2,7-diazaspiro[3.4]octane-2-carbonyl]-7-oxa-2,5-diazaspiro[3.4]octan-6-one] the value was 9.86 nM; for `O=C1NC2(CO1)CN(C(=O)N1CC3(CCN(Cc4ccc(C(F)(F)F)nn4)C3)C1)C2` [Example 158, 2-[7-[[6-(trifluoromethyl)pyrida-zin-3-yl]methyl]-2,7-diazaspiro[3.4]octane-2-carbonyl]-7-oxa-2,5-diazaspiro[3.4]octan-6-one], 33.9 nM; for `O=C1NC2(CO1)CN(C(=O)N1CC3(CN(Cc4ccc(C(F)(F)F)nn4)C3)C1)C2` [Example 159, 2-[6-[[6-(trifluoromethyl)pyrida-zin-3-yl]methyl]-2,6-diazaspiro[3.3]heptane-2-carbonyl]-7-oxa-2,5-diazaspiro[3.4]octan-6-one], 109 nM.
On to `CS(=O)(=O)c1ccc(CN2CCC3(CC2)CN(C(=O)N2CC4(CCC(=O)N4)C2)C3)cc1` [Example 160, 2-[7-(4-mesylbenzyl)-2,7-diazaspiro[3.5]nonane-2-carbonyl]-2,5-diazaspiro[3.4]octan-6-one], for which it took 279 nM to reach half-maximal inhibition (IC50).
For `O=C1NC2(CO1)CN(C(=O)N1CC3(CN(Cc4cnc(C(F)(F)F)nc4)C3)C1)C2` [Example 161, 2-[6-[[2-(trifluoromethyl)pyrimi-din-5-yl]methyl]-2,6-diazaspiro[3.3]heptane-2-carbonyl]-7-oxa-2,5-diazaspiro[3.4]octan-6-one] the value was 51.5 nM.
